In patent US8134015B2, “Compound inhibiting in vivo phosphorous transport and medicine containing the same” (Kyowa Hakko Kirin Co., Ltd., priority 2003, dated 2012):

Target: T1, rat NaPi-2b (Rattus norvegicus, UniProt Q9JJ09)
T1 construct: expressed in transfected cells; host or cells: Xenopus oocytes injected with cRNA
T1 sequence (Q9JJ09 1-695): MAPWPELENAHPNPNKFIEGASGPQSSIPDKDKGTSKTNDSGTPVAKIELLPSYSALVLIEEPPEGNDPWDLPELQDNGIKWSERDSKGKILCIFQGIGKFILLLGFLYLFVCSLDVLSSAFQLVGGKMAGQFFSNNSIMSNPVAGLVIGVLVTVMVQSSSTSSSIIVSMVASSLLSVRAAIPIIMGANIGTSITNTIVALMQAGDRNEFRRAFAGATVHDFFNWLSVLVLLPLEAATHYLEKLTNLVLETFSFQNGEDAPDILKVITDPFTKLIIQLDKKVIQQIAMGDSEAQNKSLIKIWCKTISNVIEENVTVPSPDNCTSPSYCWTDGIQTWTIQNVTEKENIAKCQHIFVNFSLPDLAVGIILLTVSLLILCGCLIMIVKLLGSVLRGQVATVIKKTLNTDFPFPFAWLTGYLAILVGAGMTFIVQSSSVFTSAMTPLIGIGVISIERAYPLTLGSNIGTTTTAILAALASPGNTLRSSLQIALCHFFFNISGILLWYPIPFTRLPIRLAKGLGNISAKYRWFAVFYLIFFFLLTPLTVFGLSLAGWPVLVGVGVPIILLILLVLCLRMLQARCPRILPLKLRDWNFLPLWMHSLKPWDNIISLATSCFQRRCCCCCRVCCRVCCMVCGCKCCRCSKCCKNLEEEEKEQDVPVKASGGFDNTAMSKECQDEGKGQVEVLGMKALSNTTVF
Test: Sodium-dependent phosphate uptake of Xenopus oocytes which expressed NaPi-2b (32P)
Type: cell-based
Settings: for IC50: Xenopus oocytes expressing rat NaPi-2b, 32P radioactive phosphorus, read-out: IC50 (phosphate uptake inhibitory activity); for inhibition at 300 µM: phosphate uptake, oocytes expressing rat NaPi-2b, determined from inhibition curve
Outline: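 Rat NaPi-2b cloned from small-intestine cDNA; cRNA injected into Xenopus oocytes, expression for 2 days. Phosphate uptake inhibition measured with 32P; percent inhibition at 300 μM and 100 μM read from the same inhibition curve.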

SMILES	IC50 [µM]	inhibition at 300 µM [%]
COc1ccc(/C=N/NC(=O)c2cc(OCCCN3CCCCC3)ccc2NC(=O)c2cccc(CSCCO)c2)cc1 [Compound 1040, 3-(2-Hydroxy-ethylsulfanylmethyl)-N-[2-(4-methoxy-benzylidene-hydrazinocarbonyl)-4-(3-piperidin-1-yl-propoxy)-phenyl]-benzamide]	52.2	
Cc1ccc(/C=N/NC(=O)c2cc(Br)ccc2NC(=O)c2ccc(CNCCCN(C)c3ccccc3)cc2)cc1 [Compound 758, N-[4-Bromo-2-(4-methyl-benzylidene-hydrazinocarbonyl)-phenyl]-4-{[3-(methyl-phenyl-amino)-propylamino]-methyl}-benzamide]		58.2
COc1cccc(/C=N/NC(=O)c2cc(Cl)ccc2NC(=O)c2cccc(CSc3nnnn3CCN(C)C)c2)c1 [Compound 468, N-[4-Chloro-2-(3-methoxy-benzylidene-hydrazinocarbonyl)-phenyl]-3-[1-(2-dimethylamino-ethyl)-1H-tetrazol-5-ylsulfanylmethyl]-benzamide]	22.4	
Cc1ccc(/C=N/NC(=O)c2scc(C)c2NC(=O)c2cccc(CN3CCC(N4CCCCC4)CC3)c2)cc1C [Compound 345, 3-[1,4′]Bipiperidinyl-1′-ylmethyl-N-[2-(3,4-dimethyl-benzylidene-hydrazinocarbonyl)-4-methyl-thiophen-3-yl]-benzamide]	130	
O=C(Nc1ccccc1C(=O)N/N=C/c1ccccc1Br)c1ccccc1 [Compound 228, N-[2-(2-Bromo-benzylidene-hydrazinocarbonyl)-phenyl]-benzamide]	22.5	
CCOCCN(CCOCC)Cc1ccc(C(=O)Nc2ccc(Br)cc2C(=O)N/N=C/c2ccc(Cl)c(C(F)(F)F)c2)cc1 [Compound 738, 4-{[Bis-(2-ethoxy-ethyl)-amino]-methyl}-N-[4-bromo-2-(4-chloro-3-trifluoromethyl-benzylidene-hydrazinocarbonyl)-phenyl]-benzamide]	7.55	
CCN(CC)CCNCc1cccc(C(=O)Nc2sc3c(c2C(=O)N/N=C/c2cccc(F)c2)CCC3)c1 [Compound 812, 3-[(2-Diethylamino-ethylamino)-methyl]-N-[3-(3-fluoro-benzylidene-hydrazinocarbonyl)-5,6-dihydro-4H-cyclopenta[b]thiophen-2-yl]-benzamide]	5.58	
CCc1ccc(C(=O)Nc2ccc(Br)cc2C(=O)N/N=C/c2cccc(F)c2)cc1 [Compound 178, N-[4-Bromo-2-(3-fluoro-benzylidene-hydrazinocarbonyl)-phenyl]-4-ethyl-benzamide]	7.54	
Cc1ccc(/C=N/NC(=O)c2cc(N3CCCC3=O)ccc2NC(=O)c2cccc(CN(CC(C)O)CC(C)O)c2)cc1C (stereo not shown) [Compound 944, 3-{[Bis-(2-hydroxy-propyl)-amino]-methyl}-N-[2-(3,4-dimethyl-benzylidene-hydrazinocarbonyl)-4-(2-oxo-pyrrolidin-1-yl)-phenyl]-benzamide]	12	
CCN(CC)CCNCc1cccc(C(=O)Nc2c(C)csc2C(=O)N/N=C/c2ccc(C)c(C)c2)c1 [Compound 536, 3-[(2-Diethylamino-ethylamino)-methyl]-N-[2-(3,4-dimethyl-benzylidene-hydrazinocarbonyl)-4-methyl-thiophen-3-yl]-benzamide]		88.2
COc1ccc(/C=N/NC(=O)c2c(C)csc2NC(=O)c2cccc(CN3CCC(N4CCCCC4)CC3)c2)cc1 [Compound 574, 3-[1,4′]Bipiperidinyl-1′-ylmethyl-N-[3-(4-methoxy-benzylidene-hydrazinocarbonyl)-4-methyl-thiophen-2-yl]-benzamide]	6.93	
Cc1ccc(/C=N/NC(=O)c2cc(Br)ccc2NC(=O)c2ccc(CN3CCC(CCO)CC3)cc2)cc1 [Compound 741, N-[4-Bromo-2-(4-methyl-benzylidene-hydrazinocarbonyl)-phenyl]-4-[4-(2-hydroxy-ethyl)-piperidin-1-ylmethyl]-benzamide]		50.9
Cc1cc(/C=N/NC(=O)c2ccccc2NC(=O)c2ccncc2)oc1C [Compound 219, N-[2-(4,5-Dimethyl-furan-2-ylmethylene-hydrazinocarbonyl)-phenyl]-isonicotinamide]	9.07	
COc1ccc(/C=N/NC(=O)c2ccsc2NC(=O)c2cccc(CN(CC(C)O)CC(C)O)c2)cc1 (stereo not shown) [Compound 780, 3-{[Bis-(2-hydroxy-propyl)-amino]-methyl}-N-[3-(4-methoxy-benzylidene-hydrazinocarbonyl)-thiophen-2-yl]-benzamide]		47.7

More lines, now with the values ahead:

IC50 [µM]	inhibition at 300 µM [%]	SMILES
1.98		CCN(CC)CCN(C)Cc1cccc(C(=O)Nc2ccc(Cl)cc2C(=O)N/N=C/c2ccc(C)c(C)c2)c1 [Compound 383, N-[4-Chloro-2-(3,4-dimethyl-benzylidene-hydrazinocarbonyl)-phenyl]-3-{[(2-diethylamino-ethyl)-methyl-amino]-methyl}-benzamide]
< 1		CCN(CC)CCN(C)Cc1cccc(C(=O)Nc2ccc(OCC3CCCCC3)cc2C(=O)N/N=C/c2ccc(C)c(C)c2)c1 [Compound 1048, N-[4-Cyclohexylmethoxy-2-(3,4-dimethyl-benzylidene-hydrazinocarbonyl)-phenyl]-3-{[(2-diethylamino-ethyl)-methyl-amino]-methyl}-benzamide]
3.25		Cc1ccc(/C=N/NC(=O)c2cc(Cl)ccc2NC(=O)c2ccc(CN(C)CCO)cc2)cc1C [Compound 416, N-[4-Chloro-2-(3,4-dimethyl-benzylidene-hydrazinocarbonyl)-phenyl]-4-{[(2-hydroxy-ethyl)-methyl-amino]-methyl}-benzamide]
< 3		O=C(Nc1cc2ccccc2cc1C(=O)N/N=C/c1ccc(Cl)c(C(F)(F)F)c1)c1cccc(CN2CCN(CCO)CC2)c1 [Compound 972, N-[3-(4-Chloro-3-trifluoromethyl-benzylidene-hydrazinocarbonyl)-naphthalen-2-yl]-3-[4-(2-hydroxy-ethyl)-piperazin-1-ylmethyl]-benzamide]
< 0.3		Cc1ccc(/C=N/NC(=O)c2cc(Cl)ccc2NC(=O)c2cccc(CN(C)CCO)c2)cc1C [Compound 398, N-[4-Chloro-2-(3,4-dimethyl-benzylidene-hydrazinocarbonyl)-phenyl]-3-{[(2-hydroxy-ethyl)-methyl-amino]-methyl}-benzamide]
1.42		CCN(CC)CCN(C)Cc1cccc(C(=O)Nc2ccc(OCC3CCCCC3)cc2C(=O)N/N=C/c2ccc(OC)cc2)c1 [Compound 1050, N-[4-Cyclohexylmethoxy-2-(4-methoxy-benzylidene-hydrazinocarbonyl)-phenyl]-3-{[(2-diethylamino-ethyl)-methyl-amino]-methyl}-benzamide]
0.87		COc1ccc(NC(=O)c2cccc(CSCC(O)CO)c2)c(C(=O)N/N=C/c2cccc(F)c2)c1 (stereo not shown) [Compound 1017, 3-(2,3-Dihydroxy-propylsulfanylmethyl)-N-[2-(3-fluoro-benzylidene-hydrazinocarbonyl)-4-methoxy-phenyl]-benzamide]
3.62		Cc1ccc(/C=N/NC(=O)c2c(NC(=O)c3cccc(CN4CCC(CO)CC4)c3)sc3ccccc23)cc1C [Compound 798, N-[3-(3,4-Dimethyl-benzylidene-hydrazinocarbonyl)-benzo[b]thiophen-2-yl]-3-(4-hydroxymethyl-piperidin-1-ylmethyl)-benzamide]
2.87		Cc1ccc(/C=N/NC(=O)c2ccccc2NC(=O)c2ccc(F)cc2)cc1 [Compound 79, 4-Fluoro-N-[2-(4-methyl-benzylidene-hydrazinocarbonyl)-phenyl]-benzamide]
1.99		COc1ccc(C(=O)Nc2ccc(C)cc2C(=O)N/N=C/c2cccc(F)c2)cc1OC [Compound 146, N-[2-(3-Fluoro-benzylidene-hydrazinocarbonyl)-4-methyl-phenyl]-3,4-dimethoxy-benzamide]
3.87		Cc1csc(NC(=O)c2cccc(CN3CCC(O)CC3)c2)c1C(=O)N/N=C/c1ccc(F)cc1 [Compound 595, N-[3-(4-Fluoro-benzylidene-hydrazinocarbonyl)-4-methyl-thiophen-2-yl]-3-(4-hydroxy-piperidin-1-ylmethyl)-benzamide]
3.01		O=C(Nc1ccccc1C(=O)N/N=C/c1ccc(F)cc1)c1ccc(F)cc1 [Compound 77, 4-Fluoro-N-[2-(4-fluoro-benzylidene-hydrazinocarbonyl)-phenyl]-benzamide]
< 1		CCN(CC)CCN(C)Cc1cccc(C(=O)Nc2ccc(OCC3CCCCC3)cc2C(=O)N/N=C/c2cccc(F)c2)c1 [Compound 1046, N-[4-Cyclohexylmethoxy-2-(3-fluoro-benzylidene-hydrazinocarbonyl)-phenyl]-3-{[(2-diethylamino-ethyl)-methyl-amino]-methyl}-benzamide]
< 3		CCN(CC)CCNCc1cccc(C(=O)Nc2scc(C)c2C(=O)N/N=C/c2ccc(C)c(C)c2)c1 [Compound 581, 3-[(2-Diethylamino-ethylamino)-methyl]-N-[3-(3,4-dimethyl-benzylidene-hydrazinocarbonyl)-4-methyl-thiophen-2-yl]-benzamide]
